Measured values as given in patent US8778873B2, “Parenteral combination therapy for infective conditions with drug resistant bacterium” (Venus Remedies Limited, priority 2005, dated 2014).
Structures can show the parent of a compound that is named as a salt. One block for each compound: values may come before it.

Tests used:
S. aurens (MRSA) = experiment: Average MIC data, growth at serial concentrations; type: cell-based
Description: (§1) Minimum Inhibitory Concentration Data
(§2) Average MIC data with growth details in various concentration of ceftriaxone and vancomycin combination of the present invention, ceftriaxone alone and vancomycin alone with following bacteria such as MSSA, Enterococcus, S. pneumoniae, Penicillin resistant streptococcus pneumoniae, MRSA.

S. aurens = experiment: Average MIC data, growth at serial concentrations; type: cell-based
Description: as §1, §2

S. pneumoniae = experiment: Average MIC data, growth at serial concentrations; type: cell-based
Description: as §1, §2

Enterococcus = experiment: Average MIC data, growth at serial concentrations; type: cell-based
Description: as §1, §2

Streptococcus pneumoniae = experiment: Average MIC data, growth at serial concentrations; type: cell-based
Description: as §1, §2

[1] = tested on: penicillin- and quinolone-resistant pneumococcal mutant strain; conditions: experimental rabbit meningitis; cited from earlier work

Growth at concentration (Average MIC data) (S. aurens (MRSA); 0.125 μg/ml): Growth Found | Growth at concentration (Average MIC data) (S. aurens (MRSA); 0.25 μg/ml): Growth Found | Growth at concentration (Average MIC data) (S. aurens (MRSA); 0.5 μg/ml): Growth Found | Growth at concentration (Average MIC data) (S. aurens (MRSA); 1 μg/ml): Growth Found | Growth at concentration (Average MIC data) (S. aurens (MRSA); 2 μg/ml): Growth Found | Growth at concentration (Average MIC data) (S. aurens (MRSA); 4 μg/ml): Growth Found | Growth at concentration (Average MIC data) (S. aurens (MRSA); 8 μg/ml): Growth Found | Growth at concentration (Average MIC data) (S. aurens (MRSA); 16 μg/ml): Growth Found | Growth at concentration (Average MIC data) (S. aurens (MRSA); 32 μg/ml): Growth Found | Growth at concentration (Average MIC data) (S. aurens (MRSA); 64 μg/ml): No growth | Growth at concentration (Average MIC data) (S. aurens (MRSA); 128 μg/ml): No growth | Growth at concentration (Average MIC data) (S. aurens; 0.125 μg/ml): Growth Found | Growth at concentration (Average MIC data) (S. aurens; 0.25 μg/ml): Growth Found | Growth at concentration (Average MIC data) (S. aurens; 0.5 μg/ml): Growth Found | Growth at concentration (Average MIC data) (S. aurens; 1 μg/ml): No growth | Growth at concentration (Average MIC data) (S. aurens; 2 μg/ml): No growth | Growth at concentration (Average MIC data) (S. aurens; 4 μg/ml): No growth | Growth at concentration (Average MIC data) (S. aurens; 8 μg/ml): No growth | Growth at concentration (Average MIC data) (S. aurens; 16 μg/ml): No growth | Growth at concentration (Average MIC data) (S. aurens; 32 μg/ml): No growth | Growth at concentration (Average MIC data) (S. aurens; 64 μg/ml): No growth | Growth at concentration (Average MIC data) (S. aurens; 128 μg/ml): No growth | Growth at concentration (Average MIC data) (S. pneumoniae; 0.125 μg/ml): Growth Found | Growth at concentration (Average MIC data) (S. pneumoniae; 0.25 μg/ml): Growth Found | Growth at concentration (Average MIC data) (S. pneumoniae; 0.5 μg/ml): No growth | Growth at concentration (Average MIC data) (S. pneumoniae; 1 μg/ml): No growth | Growth at concentration (Average MIC data) (S. pneumoniae; 2 μg/ml): No growth | Growth at concentration (Average MIC data) (S. pneumoniae; 4 μg/ml): No growth | Growth at concentration (Average MIC data) (S. pneumoniae; 8 μg/ml): No growth | Growth at concentration (Average MIC data) (S. pneumoniae; 16 μg/ml): No growth | Growth at concentration (Average MIC data) (S. pneumoniae; 32 μg/ml): No growth | Growth at concentration (Average MIC data) (S. pneumoniae; 64 μg/ml): No growth | Growth at concentration (Average MIC data) (S. pneumoniae; 128 μg/ml): No growth | Growth at concentration (Average MIC data) (Enterococcus; 0.125 μg/ml): Growth Found | Growth at concentration (Average MIC data) (Enterococcus; 0.25 μg/ml): Growth Found | Growth at concentration (Average MIC data) (Enterococcus; 0.5 μg/ml): Growth Found | Growth at concentration (Average MIC data) (Enterococcus; 1 μg/ml): No growth | Growth at concentration (Average MIC data) (Enterococcus; 2 μg/ml): No growth | Growth at concentration (Average MIC data) (Enterococcus; 4 μg/ml): No growth | Growth at concentration (Average MIC data) (Enterococcus; 8 μg/ml): No growth | Growth at concentration (Average MIC data) (Enterococcus; 16 μg/ml): No growth | Growth at concentration (Average MIC data) (Enterococcus; 32 μg/ml): No growth | Growth at concentration (Average MIC data) (Enterococcus; 64 μg/ml): No growth | Growth at concentration (Average MIC data) (Enterococcus; 128 μg/ml): No growth | Growth at concentration (Average MIC data) (Streptococcus pneumoniae; 0.125 μg/ml): Growth Found | Growth at concentration (Average MIC data) (Streptococcus pneumoniae; 0.25 μg/ml): Growth Found | Growth at concentration (Average MIC data) (Streptococcus pneumoniae; 0.5 μg/ml): Growth Found | Growth at concentration (Average MIC data) (Streptococcus pneumoniae; 1 μg/ml): Growth Found | Growth at concentration (Average MIC data) (Streptococcus pneumoniae; 2 μg/ml): Growth Found | Growth at concentration (Average MIC data) (Streptococcus pneumoniae; 4 μg/ml): No growth | Growth at concentration (Average MIC data) (Streptococcus pneumoniae; 8 μg/ml): No growth | Growth at concentration (Average MIC data) (Streptococcus pneumoniae; 16 μg/ml): No growth | Growth at concentration (Average MIC data) (Streptococcus pneumoniae; 32 μg/ml): No growth | Growth at concentration (Average MIC data) (Streptococcus pneumoniae; 64 μg/ml): No growth | Growth at concentration (Average MIC data) (Streptococcus pneumoniae; 128 μg/ml): No growth
SMILES: CO/N=C(\C(=O)N[C@@H]1C(=O)N2C(C(=O)O)=C(CSc3nc(=O)c(=O)[nH]n3C)CS[C@H]12)c1csc(N)n1 [Ceftriaxone, (Z)-7-[2-(2-Aminothiazole-4-yl)-2-methoxyiminoacetamido]-3-[(2,5-dihydro-6-hydroxy-2-methyl-5-oxo-1,2,4-triazin-3-yl)thiomethyl]-3-cephem-4-carboxylic acid, disodium salt, Sesquaterhydrate]

SMILES: CN[C@H](CC(C)C)C(=O)N[C@H]1C(=O)N[C@@H](CC(N)=O)C(=O)N[C@H]2C(=O)N[C@H]3C(=O)N[C@H](C(=O)N[C@H](C(=O)O)c4cc(O)cc(O)c4-c4cc3ccc4O)[C@H](O)c3ccc(c(Cl)c3)Oc3cc2cc(c3O[C@@H]2O[C@H](CO)[C@@H](O)[C@H](O)[C@H]2O[C@H]2C[C@](C)(N)[C@H](O)[C@H](C)O2)Oc2ccc(cc2Cl)[C@H]1O [Vancomycin]
Growth at concentration (Average MIC data) (S. aurens (MRSA); 0.125 μg/ml): Growth Found | Growth at concentration (Average MIC data) (S. aurens (MRSA); 0.25 μg/ml): Growth Found | Growth at concentration (Average MIC data) (S. aurens (MRSA); 0.5 μg/ml): Growth Found | Growth at concentration (Average MIC data) (S. aurens (MRSA); 1 μg/ml): Growth Found | Growth at concentration (Average MIC data) (S. aurens (MRSA); 2 μg/ml): Growth Found | Growth at concentration (Average MIC data) (S. aurens (MRSA); 4 μg/ml): No growth | Growth at concentration (Average MIC data) (S. aurens (MRSA); 8 μg/ml): No growth | Growth at concentration (Average MIC data) (S. aurens (MRSA); 16 μg/ml): No growth | Growth at concentration (Average MIC data) (S. aurens (MRSA); 32 μg/ml): No growth | Growth at concentration (Average MIC data) (S. aurens (MRSA); 64 μg/ml): No growth | Growth at concentration (Average MIC data) (S. aurens (MRSA); 128 μg/ml): No growth | Growth at concentration (Average MIC data) (S. aurens; 0.125 μg/ml): Growth Found | Growth at concentration (Average MIC data) (S. aurens; 0.25 μg/ml): Growth Found | Growth at concentration (Average MIC data) (S. aurens; 0.5 μg/ml): Growth Found | Growth at concentration (Average MIC data) (S. aurens; 1 μg/ml): Growth Found | Growth at concentration (Average MIC data) (S. aurens; 2 μg/ml): Growth Found | Growth at concentration (Average MIC data) (S. aurens; 4 μg/ml): No growth | Growth at concentration (Average MIC data) (S. aurens; 8 μg/ml): No growth | Growth at concentration (Average MIC data) (S. aurens; 16 μg/ml): No growth | Growth at concentration (Average MIC data) (S. aurens; 32 μg/ml): No growth | Growth at concentration (Average MIC data) (S. aurens; 64 μg/ml): No growth | Growth at concentration (Average MIC data) (S. aurens; 128 μg/ml): No growth | Growth at concentration (Average MIC data) (S. pneumoniae; 0.125 μg/ml): Growth Found | Growth at concentration (Average MIC data) (S. pneumoniae; 0.25 μg/ml): Growth Found | Growth at concentration (Average MIC data) (S. pneumoniae; 0.5 μg/ml): No growth | Growth at concentration (Average MIC data) (S. pneumoniae; 1 μg/ml): No growth | Growth at concentration (Average MIC data) (S. pneumoniae; 2 μg/ml): No growth | Growth at concentration (Average MIC data) (S. pneumoniae; 4 μg/ml): No growth | Growth at concentration (Average MIC data) (S. pneumoniae; 8 μg/ml): No growth | Growth at concentration (Average MIC data) (S. pneumoniae; 16 μg/ml): No growth | Growth at concentration (Average MIC data) (S. pneumoniae; 32 μg/ml): No growth | Growth at concentration (Average MIC data) (S. pneumoniae; 64 μg/ml): No growth | Growth at concentration (Average MIC data) (S. pneumoniae; 128 μg/ml): No growth | Growth at concentration (Average MIC data) (Enterococcus; 0.125 μg/ml): Growth Found | Growth at concentration (Average MIC data) (Enterococcus; 0.25 μg/ml): Growth Found | Growth at concentration (Average MIC data) (Enterococcus; 0.5 μg/ml): No growth | Growth at concentration (Average MIC data) (Enterococcus; 1 μg/ml): No growth | Growth at concentration (Average MIC data) (Enterococcus; 2 μg/ml): No growth | Growth at concentration (Average MIC data) (Enterococcus; 4 μg/ml): No growth | Growth at concentration (Average MIC data) (Enterococcus; 8 μg/ml): No growth | Growth at concentration (Average MIC data) (Enterococcus; 16 μg/ml): No growth | Growth at concentration (Average MIC data) (Enterococcus; 32 μg/ml): No growth | Growth at concentration (Average MIC data) (Enterococcus; 64 μg/ml): No growth | Growth at concentration (Average MIC data) (Enterococcus; 128 μg/ml): No growth | Growth at concentration (Average MIC data) (Streptococcus pneumoniae; 0.125 μg/ml): Growth Found | Growth at concentration (Average MIC data) (Streptococcus pneumoniae; 0.25 μg/ml): Growth Found | Growth at concentration (Average MIC data) (Streptococcus pneumoniae; 0.5 μg/ml): Growth Found | Growth at concentration (Average MIC data) (Streptococcus pneumoniae; 1 μg/ml): No growth | Growth at concentration (Average MIC data) (Streptococcus pneumoniae; 2 μg/ml): No growth | Growth at concentration (Average MIC data) (Streptococcus pneumoniae; 4 μg/ml): No growth | Growth at concentration (Average MIC data) (Streptococcus pneumoniae; 8 μg/ml): No growth | Growth at concentration (Average MIC data) (Streptococcus pneumoniae; 16 μg/ml): No growth | Growth at concentration (Average MIC data) (Streptococcus pneumoniae; 32 μg/ml): No growth | Growth at concentration (Average MIC data) (Streptococcus pneumoniae; 64 μg/ml): No growth | Growth at concentration (Average MIC data) (Streptococcus pneumoniae; 128 μg/ml): No growth

SMILES: CO/N=C(\C(=O)N[C@@H]1C(=O)N2C(C(=O)[O-])=C(C[N+]3(C)CCCC3)CS[C@H]12)c1csc(N)n1 [cefepime]
bactericidal activity [1]: −0.61+/−0.24 Delta log(10) cfu/mL×h
